In patent US20160303089A1, “COMPOUND PERTAINING TO NEUROPOIESIS AND DRUG COMPOSITION” (KYOTO UNIVERSITY, priority 2013, published 2016):

How the values were obtained:
CLK1 = CLK1 (Homo sapiens, UniProt P49759); experiment: In vitro assay of the inhibition of protein phosphorylation activity; format: biochemical
DYRKIB = DYRKIB (Homo sapiens, UniProt Q9Y463); experiment: as above; format: biochemical
CLK3 = CLK3 (Homo sapiens, UniProt P49761); experiment: as above; format: biochemical
[1] = system: phosphorylation of tau protein; experiment: Tau phosphorylation in brain, acute cold water stress model (western blotting); format: in vivo; conditions: administered 30 minutes before cold water stress (10 minutes); brains collected 5 minutes later
Experimental: Further, the study was conducted to investigate whether the compounds 1 to 2 inhibited the DYRK activity in the animal individuals in vivo by using phosphorylation of tau protein due to acute cold water stress as a marker. The animals were exposed to cold water stress for 10 minutes, and their brains were collected 5 minutes later. Then, the phosphorylation of the tau protein in the brains was confirmed by western blotting. Consequently, the phosphorylation of the tau protein was enhanced by the acute cold water stress. When the compound 1 or the compound 2 was administered to the animal individuals 30 minutes before they underwent the cold water stress, the tau phosphorylation caused by the cold water stress was inhibited.

DYRK3 = biological target: T1, DYRK3 (Homo sapiens, UniProt O43781); experiment: In vitro assay of the inhibition of protein phosphorylation activity; format: biochemical
T1 sequence (O43781 1-588): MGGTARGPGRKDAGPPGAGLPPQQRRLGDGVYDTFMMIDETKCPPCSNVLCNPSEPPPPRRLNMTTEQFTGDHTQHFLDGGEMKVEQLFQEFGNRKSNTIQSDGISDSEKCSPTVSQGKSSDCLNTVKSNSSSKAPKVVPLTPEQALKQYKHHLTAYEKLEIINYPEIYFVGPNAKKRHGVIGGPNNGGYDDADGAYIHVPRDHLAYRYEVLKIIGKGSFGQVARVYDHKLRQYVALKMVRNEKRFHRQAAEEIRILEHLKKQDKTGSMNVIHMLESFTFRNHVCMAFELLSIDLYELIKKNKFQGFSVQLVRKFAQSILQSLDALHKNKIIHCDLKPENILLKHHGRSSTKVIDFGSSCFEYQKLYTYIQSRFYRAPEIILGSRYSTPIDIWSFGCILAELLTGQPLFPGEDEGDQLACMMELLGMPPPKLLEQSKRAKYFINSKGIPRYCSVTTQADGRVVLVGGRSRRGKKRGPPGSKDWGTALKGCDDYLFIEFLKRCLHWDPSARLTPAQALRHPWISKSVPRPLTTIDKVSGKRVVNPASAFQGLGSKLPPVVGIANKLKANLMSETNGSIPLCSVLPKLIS

DYRK2 [2] = biological target: T2, DYRK2 (Homo sapiens, UniProt Q92630); experiment: as above; format: biochemical
T2 construct: expressed in transfected cells; host or cells: HEK293 Flp-In
T2 sequence (Q92630 1-601): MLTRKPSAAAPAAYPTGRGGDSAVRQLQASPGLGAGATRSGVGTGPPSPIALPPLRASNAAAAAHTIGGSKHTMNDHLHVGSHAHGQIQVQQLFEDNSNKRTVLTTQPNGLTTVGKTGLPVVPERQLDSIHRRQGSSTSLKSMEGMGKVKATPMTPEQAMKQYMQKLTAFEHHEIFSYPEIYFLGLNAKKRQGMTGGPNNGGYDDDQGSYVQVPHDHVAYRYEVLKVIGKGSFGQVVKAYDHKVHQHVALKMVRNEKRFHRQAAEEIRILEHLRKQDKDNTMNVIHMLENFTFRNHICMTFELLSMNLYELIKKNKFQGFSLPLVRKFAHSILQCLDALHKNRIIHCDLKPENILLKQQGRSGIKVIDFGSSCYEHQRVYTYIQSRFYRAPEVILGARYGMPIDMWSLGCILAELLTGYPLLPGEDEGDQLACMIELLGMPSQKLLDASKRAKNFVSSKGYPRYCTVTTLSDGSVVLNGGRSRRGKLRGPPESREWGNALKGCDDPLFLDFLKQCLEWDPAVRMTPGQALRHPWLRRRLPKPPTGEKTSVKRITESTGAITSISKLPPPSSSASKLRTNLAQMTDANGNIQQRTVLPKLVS

CLK2 = CLK2 (Homo sapiens, UniProt P49760); experiment: as above; format: biochemical
DYRK1A [3] = biological target: T3, DYRK1A (Homo sapiens, UniProt Q13627); experiment: as above; format: biochemical
DYRK1A [4] = biological target: T3, DYRK1A; experiment: Tau phosphorylation in cell lines with induced expression of DYRK1A and tau protein (western blotting); format: cell-based; design: dose or concentration left out as unconfirmed; conditions: compound for 4 hours after induced expression of DYRK1A and tau
Experimental: Moreover, the study was conducted to investigate whether the compound 3 inhibited the DYRK activity in the cells in vivo by using phosphorylation of tau protein (substrate) as a marker. First, cell lines that can induce the expression of DYRK1A and a tau protein by a drug were established. The cell lines were subjected to the drug treatment to induce the expression of DYRKIA and the tau protein. Then, the cells were treated with the compound 3 […] for 4 hours. After the cells were collected, the phosphorylation of the tau protein was detected by western blotting. The results confirmed that the treatment of the cells with the compound 3 inhibited the tau phosphorylation.

DYRKIA = biological target: T4, DYRKIA (Homo sapiens, UniProt Q13627); experiment: Cyclin D1 expression in HEK293 Flp-In cell line with inducible DYRK expression (western blotting); format: cell-based
T4 construct: expressed in transfected cells; host or cells: HEK293 Flp-In
Experimental: (§1) Using cell lines that can induce the expression of DYRKIA, DYRKIB, and DYRK2 by the addition of a drug, the expression level of cyclin D1 was examined when DYRK was overexpressed (see FIG. 8). Specifically, the experiments were performed in the following manner.
(§2) A HEK293 Flp-In cell system was used to prepare cell lines that can induce the expression of each of DYRKIA, DYRK1B, and DYRK2 of the DYRK family by the addition of a drug. The cells were treated with the drug for 16 hours to induce the expression of DYRK, and then cultured in the presence of the compound 2 (5 μM) for 4 hours. After the cells were collected, the expression level of cyclin D1 was analyzed by western blotting (see FIG. 8).

DYRK2 [5] = biological target: T2, DYRK2; experiment: as above; format: cell-based
Experimental: as §1, §2

DYRK1B = biological target: T5, DYRK1B (Homo sapiens, UniProt Q9Y463); experiment: as above; format: cell-based
T5 construct: expressed in transfected cells; host or cells: HEK293 Flp-In
Experimental: as §1, §2

[6] = system: neural stem cells in the dentate gyrus of the hippocampus; experiment: Neurogenesis in dentate gyrus of hippocampus of mice (BrdU positive cells); format: in vivo, C57BL/6J mice; conditions: oral, 30 mg/kg and 100 mg/kg for 10 or 30 days; depended on the dosage; compared to solvent control
Experimental: The effect of the compound 2 on neurogenesis in animal individuals (rodents) was studied. The subgranular zone of the dentate gyrus of the hippocampus is a region where neurogenesis occurs. In this region, 5-bromo-2′-deoxyuridine (BrdU) was used as a cell proliferation marker to specifically detect proliferating cells and quantitatively compare the number of proliferating cells. Specifically, the experiments were performed in the following manner. The compound 2 was prepared with a carboxymethyl cellulose solvent and orally administered repeatedly to 9-week-old male C57BL/6J mice (each weighing 25 g) in a dosage of 30 mg/kg and 100 mg/kg for 10 or 30 days. On the last day of the administration, 150 mg/kg of BrdU were intraperitoneally injected into the mice, and the samples were collected 24 hours later by perfusion fixation. Then, coronal sections of 50 μm were prepared by a microtome. After the denaturation of DNA by 1.5 N hydrochloric acid, an anti-BrdU antibody was used to detect BrdU that had been incorporated into the proliferating neural stem cells.

T5 sequence (Q9Y463 whole entry, species assumed): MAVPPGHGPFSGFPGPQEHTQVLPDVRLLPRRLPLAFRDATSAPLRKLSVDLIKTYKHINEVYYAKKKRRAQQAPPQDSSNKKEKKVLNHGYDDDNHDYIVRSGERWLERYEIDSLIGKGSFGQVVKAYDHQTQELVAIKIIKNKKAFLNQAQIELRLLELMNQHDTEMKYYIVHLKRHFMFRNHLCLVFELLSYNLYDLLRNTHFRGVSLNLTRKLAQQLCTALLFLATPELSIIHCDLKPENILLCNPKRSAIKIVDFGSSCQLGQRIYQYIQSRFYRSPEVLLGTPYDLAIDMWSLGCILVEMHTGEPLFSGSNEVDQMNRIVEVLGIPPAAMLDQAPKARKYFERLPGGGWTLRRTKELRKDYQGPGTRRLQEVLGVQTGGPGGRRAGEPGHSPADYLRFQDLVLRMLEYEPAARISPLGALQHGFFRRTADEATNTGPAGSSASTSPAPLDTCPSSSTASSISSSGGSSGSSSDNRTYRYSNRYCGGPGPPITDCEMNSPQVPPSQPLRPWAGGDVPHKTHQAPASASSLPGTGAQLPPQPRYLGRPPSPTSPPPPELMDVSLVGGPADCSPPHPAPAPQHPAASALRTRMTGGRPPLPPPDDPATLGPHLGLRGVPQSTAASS
Sequence of CLK3 (P49761 whole entry, species assumed): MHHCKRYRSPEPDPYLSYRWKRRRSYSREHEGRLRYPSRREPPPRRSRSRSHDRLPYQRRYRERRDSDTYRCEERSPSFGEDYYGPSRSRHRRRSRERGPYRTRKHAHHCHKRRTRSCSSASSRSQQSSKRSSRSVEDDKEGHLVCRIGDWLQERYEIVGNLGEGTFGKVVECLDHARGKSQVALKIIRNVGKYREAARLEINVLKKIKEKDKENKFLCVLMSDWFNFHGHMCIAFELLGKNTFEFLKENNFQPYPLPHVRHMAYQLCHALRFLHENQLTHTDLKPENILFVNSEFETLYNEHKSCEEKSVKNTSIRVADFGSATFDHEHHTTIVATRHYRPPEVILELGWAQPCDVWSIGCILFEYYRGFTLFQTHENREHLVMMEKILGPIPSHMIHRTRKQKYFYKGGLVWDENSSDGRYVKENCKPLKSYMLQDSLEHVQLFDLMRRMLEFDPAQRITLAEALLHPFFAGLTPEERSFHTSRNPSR
Sequence of DYRKIB (Q9Y463 whole entry): as the sequence (Q9Y463 whole entry, species assumed) above
Sequence of CLK2 (P49760 whole entry, species assumed): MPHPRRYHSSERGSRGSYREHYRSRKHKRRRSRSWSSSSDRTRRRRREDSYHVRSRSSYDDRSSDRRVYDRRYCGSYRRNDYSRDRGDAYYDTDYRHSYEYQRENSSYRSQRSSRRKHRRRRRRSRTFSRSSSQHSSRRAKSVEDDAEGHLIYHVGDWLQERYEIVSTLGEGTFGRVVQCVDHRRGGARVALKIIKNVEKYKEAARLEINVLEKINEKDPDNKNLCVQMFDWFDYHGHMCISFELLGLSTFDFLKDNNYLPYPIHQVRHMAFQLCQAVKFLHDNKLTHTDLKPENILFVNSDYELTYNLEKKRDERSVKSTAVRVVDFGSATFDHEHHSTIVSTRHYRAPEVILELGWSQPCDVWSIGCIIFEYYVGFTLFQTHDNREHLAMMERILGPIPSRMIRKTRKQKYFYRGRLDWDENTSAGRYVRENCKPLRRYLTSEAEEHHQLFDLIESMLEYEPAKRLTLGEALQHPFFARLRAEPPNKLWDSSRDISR
Sequence of CLK1 (P49759 whole entry): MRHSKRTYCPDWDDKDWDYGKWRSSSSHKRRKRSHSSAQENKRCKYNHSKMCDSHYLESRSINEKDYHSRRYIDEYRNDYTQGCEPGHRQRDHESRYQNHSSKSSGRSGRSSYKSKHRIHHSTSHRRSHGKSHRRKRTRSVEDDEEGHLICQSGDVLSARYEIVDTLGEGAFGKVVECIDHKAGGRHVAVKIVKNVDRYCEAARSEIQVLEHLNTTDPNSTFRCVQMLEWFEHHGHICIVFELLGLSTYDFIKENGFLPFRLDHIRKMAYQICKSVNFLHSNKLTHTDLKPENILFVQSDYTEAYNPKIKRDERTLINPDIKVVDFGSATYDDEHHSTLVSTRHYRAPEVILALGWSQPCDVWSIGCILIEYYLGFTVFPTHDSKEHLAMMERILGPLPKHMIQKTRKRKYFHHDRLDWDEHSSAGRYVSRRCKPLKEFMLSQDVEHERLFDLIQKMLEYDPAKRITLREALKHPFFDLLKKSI

SMILES	inhibition of the CLK1 activity (CLK1) [%]	inhibition of the DYRKIB activity (DYRKIB) [%]	inhibition of the CLK3 activity (CLK3) [%]	tau phosphorylation caused by the cold water stress (brain) [1]	inhibition of the DYRK3 activity (DYRK3) [%]	inhibition of the DYRK2 activity (DYRK2 [2]) [%]	inhibition of the CLK2 activity (CLK2) [%]	inhibition of the DYRK1A activity (DYRK1A [3]) [%]	tau phosphorylation in cells (DYRK1A [4])	expression level of cyclin D1 (DYRKIA; DYRKIA cell line, compound 5 μM for 4 hours, lane 2 of FIG. 8)	reduction in cyclin D1 by inducing the expression of DYRK (DYRKIA; DYRKIA expression induced 16 hours, then compound 5 μM for 4 hours, lane 4 of FIG. 8)	expression level of cyclin D1 (DYRK2 [5]; DYRK2 cell line, compound 5 μM for 4 hours, lane 10 of FIG. 8)	reduction in cyclin D1 by inducing the expression of DYRK (DYRK2 [5]; DYRK2 expression induced 16 hours, then compound 5 μM for 4 hours, lane 12 of FIG. 8)	expression level of cyclin D1 (DYRK1B; DYRK1B cell line, compound 5 μM for 4 hours, lane 6 of FIG. 8)	reduction in cyclin D1 by inducing the expression of DYRK (DYRK1B; DYRK1B expression induced 16 hours, then compound 5 μM for 4 hours, lane 8 of FIG. 8)	number of proliferating cells (BrdU positive) in the subgranular zone of the dentate gyrus of the hippocampus [6]
CCN1/C(=C/C(C)=O)Sc2ccc3c(c21)CCO3 [compound 1, (Z)-1-[1-ethyl-7,8-dihydrobenzofuro[4,5-d]thiazol-2(1H)-ylidene]propan-2-one]	99	99	80	inhibited	100	100	98	98	–	–	–	–	–	–	–	–
COc1ccc2c([nH]c3c(C)nccc32)c1C#C[Si](C)(C)C [compound 3, 8-[2-(trimethylsilyl)ethynyl]harmine]	–	–	–	–	–	–	–	–	inhibited	–	–	–	–	–	–	–
CCN1/C(=C/C(C)=O)Sc2ccc3occc3c21 [compound 2, (Z)-1-[1-ethyl-7,8-benzofuro[4,5-d]thiazol-2(1H)-ylidene]propan-2-one]	–	–	–	inhibited	–	–	–	–	–	increased	corrected	increased	corrected	increased	corrected	significantly large
